This note sets out measurements from US7786155B2, “Organic compounds” (Novartis AG, priority 2007, dated 2010).

The target in the first experiment is T1, recombinant human NPY Y2 receptors (Homo sapiens, UniProt P49146).
T1 construct: expressed in transfected cells; host or cells: CHO-C4 cells (membrane preparation)
T1 sequence (P49146 1-381): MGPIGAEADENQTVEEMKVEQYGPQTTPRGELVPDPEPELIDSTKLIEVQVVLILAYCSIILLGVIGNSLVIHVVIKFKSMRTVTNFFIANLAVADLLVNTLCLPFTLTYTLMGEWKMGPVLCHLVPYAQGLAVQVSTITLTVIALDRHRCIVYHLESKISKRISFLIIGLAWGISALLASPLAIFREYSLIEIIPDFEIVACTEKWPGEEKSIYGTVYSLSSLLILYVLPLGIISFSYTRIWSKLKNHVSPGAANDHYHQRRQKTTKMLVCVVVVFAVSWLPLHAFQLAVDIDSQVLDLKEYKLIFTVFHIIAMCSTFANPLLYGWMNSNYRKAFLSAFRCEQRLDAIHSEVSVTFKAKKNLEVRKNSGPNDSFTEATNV
The experiment can be described thus: Scintillation proximity [35S]GTPγS binding assay (inhibition of 0.5 nM NPY-stimulated [35S]GTPγS binding). Type of experiment: biochemical. The following applies: 10 μM compound, membranes from CHO-C4 cells expressing recombinant human NPY Y2 receptors. How it is done: Preparation of Membranes: CHO-C4 cells expressing recombinant human NPY Y2 receptors were used to prepare membranes for the GTPγS assay. Cells were grown to 80-95% confluency on 15-cm (225 cm^2) tissue culture plates. After aspiration of the culture medium, cells were washed twice with 18 ml ice-cold phosphate-buffered saline (PBS), scraped off and suspended in 3 ml ice-cold PBS in pre-cooled centrifuge tubes. The dishes were rinsed with 2 ml ice-old PBS per dish and the washings were combined with the PBS cell suspension from above. Cells pooled from 5-7 dishes were centrifuged for 5 min at 10,000 rpm (12,000 g) in a Sorvall RC5B centrifuge using an SS34 rotor at […]. The cell pellet was resuspended in 5 ml ice-cold buffer (20 mM HEPES, 10 mM EDTA; pH 7.4) by vortexing (2-5 sec), homogenized using a Polytron (step 4 for 20-30 sec), and ice-cold buffer added to 25 ml. The suspension was centrifuged again for 20 min at 18,000 rpm (39,000 g) at 4° C. and the pellet resuspended in 5 ml ice-cold buffer (20 mM HEPES, 0.1 mM EDTA; pH 7.4) by vortexing (2-5 sec), homogenized with a Polytron (step 4 for 10 sec), and ice-cold buffer added to 25 ml. The suspension was centrifuged a third time for 20 min at 18,000 rpm (39,000 g) at 4° C. The pellet was resuspend in 1 ml ice-cold buffer (20 mM Hepes, 0.1 mM EDTA; pH 7.4) by vortexing (5-8 sec). Two to five resuspended pellets were combined and homogenized using a Polytron (step 4 for 15-25 sec). A small aliquot (20-50 μl) was removed for protein determination by the Coomassie Plus Protein Assay Reagent (Pierce) using BSA as standard. The membrane suspension was aliquoted in precooled (on dry ice) Eppendorf tubes (0.25-1 ml/tube affording approximately 0.5-2 mg of membrane protein/tube). The pellets were frozen and stored at −80° C.
Scintillation proximity [^35S]GTPγS binding assay: Frozen membranes from CHO-C4 cells expressing recombinant human NPY Y2 receptors (2 mg for four 96-well plates) were thawed on ice. Thawed membranes were pipetted into 10 ml of assay buffer (20 mM HEPES, 10 mM MgCl2, 100 mM NaCl, pH 7.4) and homogenized briefly using a Polytron. The final assay mixture was prepared in 96-well microtiter plates (Isoplate Wallac, Perkin Elmer). The composition of the assay mixtures in a final volume of 250 μl per well was as follows: 20 mM HEPES, 10 mM MgCl2, 100 mM NaCl, pH 7.4, 30 μM GDP, 1 mg/ml BSA (added fresh), 5 μg membrane protein, 1.5 mg Wheatgerm agglutinin SPA beads (Amersham), 0.45 nM [^35S]GTPγS (Amersham, SJ1308, 1000 Ci/mmol, stabilized solution), and the test compounds (agonists and/or antagonists) at the appropriate concentrations. The samples were incubated at room temperature for 90 min by shaking, after which the SPA beads were sedimented by centrifugation in an Eppendorf 5804 centrifuge at 2700 rpm for 10 min at room temperature. After 60 min the plates were counted in a TopCount (Canberra). Basal [^35S]GTPγS binding was measured in the absence of agonist (NPY). Non-specific binding was measured in the presence of excess (10 μM) unlabelled GTPγS (Sigma). Nonspecific binding never exceeded 10% of basal binding and was thus not subtracted from the experimental data. Antagonists were tested for the inhibition of 0.5 nM NPY-stimulated [^35S]GTPγS binding. Antagonist inhibition curves were analyzed by non-linear regression using GraphPad Prism software (Version 4.0, GraphPad Software Inc., CA, USA).
Antagonistic activity of compounds of the present invention was examined by the Scintillation proximity [^35S]GTPγS binding assay as described above (inhibition of 0.5 nM NPY-stimulated [^35S]GTPγS binding). The table below represents percentages of inhibition at a concentration of 10 μM.
Background: SPA uses beads or plates that emit light when radiolabelled molecules are held near them.
Consider `COc1ccccc1CC(=O)Nc1ccc(C(=O)CN2C(=O)C(c3ccccc3)(c3ccccc3)N=C2C)cc1` [Compound 30, 2-(2-Methoxy-phenyl)-N-{4-[2-(2-methyl-5-oxo-4,4-phenyl-4,5-dihydro-imidazol-1yl)-acetyl]-phenyl}-acetamide], for which the “[%] inhibiton at 10 μM” value came out at 78%.

Staying with this experiment, now noted: 10 μM compound, membranes from CHO-C4 cells expressing recombinant human NPY Y2 receptors, read-out: [%] inhibiton at 10 μM.
Turning to `CC1=NC(c2ccccc2)(c2ccccc2)C(=O)N1CC(=O)c1ccc(NC(=O)c2ccccc2F)cc1` [Compound 21, 2-Fluoro-N-{4-[2-(2-methyl-5-oxo-4,4-diphenyl-4,5-dihydro-imidazol-1-yl)-acetyl]-phenyl}-benzamide], the inhibition at 10 µM was determined as 61%.
On the same count and under the same terms, next, `CCC(CC)C(=O)Nc1ccc(C(=O)CN2C(=O)C(c3ccccc3)(c3ccccc3)N=C2C)cc1` [Compound 34, 2-Ethyl-N-{4-[2-(2-methyl-5-oxo-4,4-diphenyl-4,5-dihydro-imidazol-1-yl)-acetyl]-phenyl}-butyramide]: 65%; `COc1ccccc1C(=O)Nc1ccc(C(=O)CN2C(=O)C(c3ccccc3)(c3ccccc3)N=C2C)cc1` [Compound 23, 2-Methoxy-N-{4-[2-(2-methyl-5-oxo-4,4-diphenyl-4,5-dihydro-imidazol-1-yl)-acetyl]-phenyl}-benzamide]: 46%.
As to `CC1=NC(c2ccccc2)(c2ccccc2)C(=O)N1CCc1ccc(NC(=O)CC(C)C)cc1` [Compound 5, 3-Methyl-N-{4-[2-(2-methyl-5-oxo-4,4-diphenyl-4,5-dihydro-imidazol-1-yl)-ethyl]-phenyl}-butyramide], the inhibition at 10 µM turned out to be 35%.
For `CCCC1(c2ccc(F)cc2)N=C(C)N(CC(=O)c2ccc(NC(=O)C3CCOC3)cc2)C1=O` (stereo not drawn) [Compound 16, Tetrahydro-furan-3-carboxylic acid (4-{2-[4-(4-fluoro-phenyl)-2-methyl-5-oxo-4-propyl-4,5-dihydro-imidazol-1-yl]-acetyl}-phenyl)-amide], the inhibition at 10 µM turned out to be 28%.
Same read-out and setting: next, `CCCC1(c2ccccc2)N=C(C)N(CC(=O)c2ccc(NC(=O)Nc3c(C)noc3C)cc2)C1=O` (racemic) [Compound 6, (+/−)-1-(3,5-Dimethyl-isoxazol-4-yl)-3-{4-[2-(2-methyl-5-oxo-4-phenyl-4-propyl-4,5-dihydro-imidazol-1-yl)-acetyl]-phenyl}-urea]: 99%.
Turning to `CCCC1(c2ccccc2)N=C(C)N(CC(=O)c2ccc(NC(=O)C3CCOC3)cc2F)C1=O` (stereo not drawn) [Compound 15, Tetrahydro-furan-3-carboxylic acid {3-fluoro-4-[2-(2-methyl-5-oxo-4-phenyl-4-propyl-4,5-dihydro-imidazol-1yl)-acetyl]-phenyl}-amide], the inhibition at 10 µM was 42%.
Still for that read-out and setting: next, `CCC(CC)C(=O)Nc1ccc(CCN2C(=O)C(c3ccccc3)(c3ccccc3)N=C2C)cc1` [Compound 4, 2-Ethyl-N-{4-[2-(2-methyl-5-oxo-4,4-diphenyl-4,5-dihydro-imidazol-1-yl)ethyl]-phenyl}-butyramide]: 46%.
As to `CCC(CC)C(=O)Nc1ccc(C(O)CN2C(=O)C(c3ccccc3)(c3ccccc3)N=C2C)cc1` (racemic) [Compound 26, (+/−)-2-Ethyl-N-{4-[1-hydroxy-2-(2-methyl-5-oxo-4,4-diphenyl-4,5-dihydro-imidazol-1-yl)-ethyl]-phenyl}-butyramide], the inhibition at 10 µM was 45%.
Take `CCCC1(c2ccc(F)cc2)N=C(C)N(CC(=O)c2ccc(NC(=O)Nc3c(C)noc3C)cc2)C1=O` (racemic) [Compound 7, (+/−)-1-(3,5-Dimethyl-isoxazol-4-yl)-3-(4-{2-[4-(4-fluoro-phenyl)-2-methyl-5-oxo-4-propyl-4,5-dihydro-imidazol-1-yl]-acetyl}-phenyl)urea]: the inhibition at 10 µM was 91%.
In the case of `CCCC1(c2ccc(F)cc2)N=C(C)N(CC(=O)c2ccc(NC(=O)C(CC)CC)cc2)C1=O` (racemic) [Compound 9, (+/−)-2-Ethyl-N-(4-{2-[4-(4-fluoro-phenyl)-2-methyl-5-oxo-4-propyl-4,5-dihydro-imidazol-1-yl]-acetyl}-phenyl)-butyramide], the inhibition at 10 µM came to 68%.
